In patent US20230165831A1, “METHOD AND COMPOSITION FOR RENDERING CANCER CELLS SUSCEPTIBLE TO TREATMENT BY TARGETED ONCOGENETIC DRIVERS” (IMPACT BIOLIFE SCIENCE, INC., priority 2021, published 2023):
Read-outs that look alike come from different tables or passages of the source.

What was measured:
[1] = system: kidney cancer line 786-O cells; assay: CTG (CellTiter-Glo) cell viability assay, 6×6 combo matrix, 72 h, 786-O; conditions: Homo sapiens;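 further: luminescence read-out after adding CellTiter-Glo reagent, with cells incubated at 37 °C under 5% CO2 during compound exposure, part of a ten cell line synergy study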
Method: (§1) To measure the cell inhibition effect of compounds and synergy effect of test articles on ten (10) cell lines using standard CTG assay.
(§2) 7) Using complete cell medium, adjust the volume of the suspension to achieve a cell concentration.
(§3) b. A549, T47D, SK-OV-3, MKN45, SK-Hep-1, HT-29, Capan-1, 786-O and LNCaP cell line, for compounds and vehicle groups, the seeding density of cell lines is 3000 cells/80 µL per well. For blank groups, add 100 µL medium. For PBS groups, add 100 µL PBS.
(§4) 8) Incubate the U87MG, A549, T47D, SK-OV-3, MKN45, SK-Hep-1, HT-29, Capan-1, 786-O and LNCaP cells overnight at 37° C./5% CO2.
(§5) Solid compound of cis-platinum was solubilized in PBS to a stock solution of 3.333 mM.
(§6) Final volume is 100 µL per well at this point.
(§7) 5) Incubate the plates at 37° C./5% CO2 for 72 hours.
(§8) 1) Incubate the plates at room temperature and away from light for 30 minutes.
(§9) 3) Add 100 µL /well of CellTiter-Glo® Reagent in each well. Avoid light.
(§10) 4) Mix contents for 2 minutes on an orbital shaker.
(§11) 5) Incubate plate at room temperature for 10 minutes to stabilize the luminescent signal.
6) Read plates in Envision.

[2] = system: glioblastoma line U87MG cells; assay: CTG (CellTiter-Glo) cell viability assay, 6×6 combo matrix, 72 h, U87MG; conditions: Homo sapiens, U-87 MG;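 further: U87MG cells seeded at 2000 per well, exposed 72 h, viability read by CellTiter-Glo luminescence, inhibition expressed relative to vehicle-treated wells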
Method: as §1, §2
U87MG cell lines, for compounds and vehicle groups, the seeding density of cell lines is 2000 cells/80 µL per well. For blank groups, add 100 µL medium. For PBS groups, add 100 µL PBS.
as §4, §5, §6, §7, §8, §9, §10, §11
6) Read plates in Envision.

[3] = system: breast cancer line T47D cells; assay: CTG (CellTiter-Glo) cell viability assay, 6×6 combo matrix, 72 h, T47D; conditions: Homo sapiens;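 further: luminescence read-out after 72 h at 37 °C under 5% CO2, with medium-only wells as blanks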
Method: as §1, §2, §3, §4, §5, §6, §7, §8, §9, §10, §11
6) Read plates in Envision.

[4] = system: Liver cancer line SK-HEP-1 cells; assay: CTG (CellTiter-Glo) cell viability assay, 6×6 combo matrix, 72 h, SK-Hep-1; conditions: Homo sapiens;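 further: luminescent signal read after 72 h compound exposure at 37 °C under 5% CO2, with medium-only wells serving as blank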
[5] = system: gastric cancer line MKN45 cells; assay: CTG (CellTiter-Glo) cell viability assay, 6×6 combo matrix, 72 h, MKN45;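 further: MKN45 cell viability read as CellTiter-Glo luminescence after 72 h culture at 37 °C under 5% CO2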
Method: as §1, §2
A549, T47D, SK-OV-3, MKN45, SK-Hep-1, HT-29, Capan-1, 786-O and LNCaP cell line, for compounds and vehicle groups, the seeding density of cell lines is 3000 cells/80 µL per well. For blank groups, add 100 µL medium. For PBS groups, add 100 µL PBS.
as §4, §5, §6, §7, §8, §9, §10, §11
6) Read plates in Envision.

Compound: O=c1c(O)c(-c2cc(O)c(O)c(O)c2)oc2cc(O)cc(O)c12 [myricetin]
- inhibition at 100 µM ([1]; 786-0, read-out: Relatively Cell inhibition of vehicle control, myricetin 100 µM only (cisplatin table)): 43.4%
- inhibition at 100 µM ([1]; 786-0, read-out: Relatively Cell inhibition of vehicle control, myricetin 100 µM only (doxorubicin table)): 43.1%
- inhibition at 100 µM ([1]; 786-0, read-out: Relatively Cell inhibition of vehicle control, myricetin 100 µM only (taxol table)): 42%
- inhibition at 100 µM ([1]; 786-0, read-out: Relatively Cell inhibition of vehicle control, myricetin 100 µM only (topotecan table)): 44.8%
- inhibition at 0.8 µM ([2]; read-out: Relatively Cell inhibition of vehicle control(%), myricetin 0.8 µM only (cisplatin plate)): 1.25%
- inhibition at 0.8 µM ([2]; read-out: Relatively Cell inhibition of vehicle control(%), myricetin 0.8 µM only (doxorubicin plate)): -1.19%
- inhibition at 0.8 µM ([2]; read-out: Relatively Cell inhibition of vehicle control(%), myricetin 0.8 µM only (taxol plate)): 2.29%
- inhibition at 0.8 µM ([2]; read-out: Relatively Cell inhibition of vehicle control(%), myricetin 0.8 µM only (topotecan plate)): 3.94%
- inhibition at 4 µM ([2]; read-out: Relatively Cell inhibition of vehicle control(%), myricetin 4 µM only (cisplatin plate)): -0.71%
- inhibition at 4 µM ([2]; read-out: Relatively Cell inhibition of vehicle control(%), myricetin 4 µM only (doxorubicin plate)): 1.02%
- inhibition at 4 µM ([2]; read-out: Relatively Cell inhibition of vehicle control(%), myricetin 4 µM only (taxol plate)): 0.66%
- inhibition at 4 µM ([2]; read-out: Relatively Cell inhibition of vehicle control(%), myricetin 4 µM only (topotecan plate)): 3.52%
- inhibition at 20 µM ([2]; read-out: Relatively Cell inhibition of vehicle control(%), myricetin 20 µM only (cisplatin plate)): 9.21%
- inhibition at 20 µM ([2]; read-out: Relatively Cell inhibition of vehicle control(%), myricetin 20 µM only (doxorubicin plate)): 7.98%
- inhibition at 20 µM ([2]; read-out: Relatively Cell inhibition of vehicle control(%), myricetin 20 µM only (taxol plate)): 11.1%
- inhibition at 20 µM ([2]; read-out: Relatively Cell inhibition of vehicle control(%), myricetin 20 µM only (topotecan plate)): 8.45%
- inhibition at 100 µM ([2]; read-out: Relatively Cell inhibition of vehicle control(%), myricetin 100 µM only (cisplatin plate)): 46.8%
- inhibition at 100 µM ([2]; read-out: Relatively Cell inhibition of vehicle control(%), myricetin 100 µM only (doxorubicin plate)): 32.3%
- inhibition at 100 µM ([2]; read-out: Relatively Cell inhibition of vehicle control(%), myricetin 100 µM only (taxol plate)): 45.7%
- inhibition at 100 µM ([2]; read-out: Relatively Cell inhibition of vehicle control(%), myricetin 100 µM only (topotecan plate)): 43.4%
- inhibition at 0.8 µM ([3]; read-out: Relatively Cell inhibition of vehicle control(%), T47D, 0.8 µM myricetin only (cisplatin 0)): -1.72%
- inhibition at 0.8 µM ([3]; read-out: Relatively Cell inhibition of vehicle control(%), T47D, 0.8 µM myricetin only (doxorubicin 0)): 8.68%
- inhibition at 0.8 µM ([3]; read-out: Relatively Cell inhibition of vehicle control(%), T47D, 0.8 µM myricetin only (taxol 0)): 6.31%
- inhibition at 0.8 µM ([3]; read-out: Relatively Cell inhibition of vehicle control(%), T47D, 0.8 µM myricetin only (topotecan 0)): 1.93%
- inhibition at 4 µM ([3]; read-out: Relatively Cell inhibition of vehicle control(%), T47D, 4 µM myricetin only (cisplatin 0)): -0.88%
- inhibition at 4 µM ([3]; read-out: Relatively Cell inhibition of vehicle control(%), T47D, 4 µM myricetin only (doxorubicin 0)): 1.01%
- inhibition at 4 µM ([3]; read-out: Relatively Cell inhibition of vehicle control(%), T47D, 4 µM myricetin only (taxol 0)): 0.2%
- inhibition at 4 µM ([3]; read-out: Relatively Cell inhibition of vehicle control(%), T47D, 4 µM myricetin only (topotecan 0)): -2.25%
- inhibition at 20 µM ([3]; read-out: Relatively Cell inhibition of vehicle control(%), T47D, 20 µM myricetin only (cisplatin 0)): 2.08%
- inhibition at 20 µM ([3]; read-out: Relatively Cell inhibition of vehicle control(%), T47D, 20 µM myricetin only (doxorubicin 0)): 8.28%
- inhibition at 20 µM ([3]; read-out: Relatively Cell inhibition of vehicle control(%), T47D, 20 µM myricetin only (taxol 0)): 5.67%
- inhibition at 20 µM ([3]; read-out: Relatively Cell inhibition of vehicle control(%), T47D, 20 µM myricetin only (topotecan 0)): 3.54%
- inhibition at 100 µM ([3]; read-out: Relatively Cell inhibition of vehicle control(%), T47D, 100 µM myricetin only (cisplatin 0)): 25.4%
- inhibition at 100 µM ([3]; read-out: Relatively Cell inhibition of vehicle control(%), T47D, 100 µM myricetin only (doxorubicin 0)): 24.5%
- inhibition at 100 µM ([3]; read-out: Relatively Cell inhibition of vehicle control(%), T47D, 100 µM myricetin only (taxol 0)): 30%
- inhibition at 100 µM ([3]; read-out: Relatively Cell inhibition of vehicle control(%), T47D, 100 µM myricetin only (topotecan 0)): 22.2%
- inhibition at 0.8 µM ([4]; SK-HEP1, read-out: Relatively Cell inhibition of vehicle control, myricetin 0.8 µM only (cisplatin table)): -11.5%
- inhibition at 0.8 µM ([4]; SK-HEP1, read-out: Relatively Cell inhibition of vehicle control, myricetin 0.8 µM only (doxorubicin table)): -9.74%
- inhibition at 0.8 µM ([4]; SK-HEP1, read-out: Relatively Cell inhibition of vehicle control, myricetin 0.8 µM only (taxol table)): -6.66%
- inhibition at 0.8 µM ([4]; SK-HEP1, read-out: Relatively Cell inhibition of vehicle control, myricetin 0.8 µM only (topotecan table)): -19.3%
- inhibition at 4 µM ([4]; SK-HEP1, read-out: Relatively Cell inhibition of vehicle control, myricetin 4 µM only (cisplatin table)): 20.2%
- inhibition at 4 µM ([4]; SK-HEP1, read-out: Relatively Cell inhibition of vehicle control, myricetin 4 µM only (doxorubicin table)): 32.3%
- inhibition at 4 µM ([4]; SK-HEP1, read-out: Relatively Cell inhibition of vehicle control, myricetin 4 µM only (taxol table)): 22.8%
- inhibition at 4 µM ([4]; SK-HEP1, read-out: Relatively Cell inhibition of vehicle control, myricetin 4 µM only (topotecan table)): 16.8%
- inhibition at 20 µM ([4]; SK-HEP1, read-out: Relatively Cell inhibition of vehicle control, myricetin 20 µM only (cisplatin table)): 92.4%
- inhibition at 20 µM ([4]; SK-HEP1, read-out: Relatively Cell inhibition of vehicle control, myricetin 20 µM only (doxorubicin table)): 93.5%
- inhibition at 20 µM ([4]; SK-HEP1, read-out: Relatively Cell inhibition of vehicle control, myricetin 20 µM only (taxol table)): 92.8%
- inhibition at 20 µM ([4]; SK-HEP1, read-out: Relatively Cell inhibition of vehicle control, myricetin 20 µM only (topotecan table)): 93.2%
- inhibition at 100 µM ([4]; SK-HEP1, read-out: Relatively Cell inhibition of vehicle control, myricetin 100 µM only (cisplatin table)): 99.6%
- inhibition at 100 µM ([4]; SK-HEP1, read-out: Relatively Cell inhibition of vehicle control, myricetin 100 µM only (doxorubicin table)): 99.4%
- inhibition at 100 µM ([4]; SK-HEP1, read-out: Relatively Cell inhibition of vehicle control, myricetin 100 µM only (taxol table)): 99.6%
- inhibition at 100 µM ([4]; SK-HEP1, read-out: Relatively Cell inhibition of vehicle control, myricetin 100 µM only (topotecan table)): 99.4%
- Relatively Cell inhibition of vehicle control(%) ([5]; Myr 0.8 µM only (Cis 0)): 5.96%
- Relatively Cell inhibition of vehicle control(%) ([5]; Myr 0.8 µM only (Dox 0)): 1.79%
- Relatively Cell inhibition of vehicle control(%) ([5]; Myr 0.8 µM only (Tax 0)): 0.13%
- Relatively Cell inhibition of vehicle control(%) ([5]; Myr 0.8 µM only (Top 0)): -8.02%
- Relatively Cell inhibition of vehicle control(%) ([5]; Myr 4 µM only (Cis 0)): 6.78%
- Relatively Cell inhibition of vehicle control(%) ([5]; Myr 4 µM only (Dox 0)): 2.42%
- Relatively Cell inhibition of vehicle control(%) ([5]; Myr 4 µM only (Tax 0)): -1.75%
- Relatively Cell inhibition of vehicle control(%) ([5]; Myr 4 µM only (Top 0)): -4.89%
- Relatively Cell inhibition of vehicle control(%) ([5]; Myr 20 µM only (Cis 0)): 14.42%
- Relatively Cell inhibition of vehicle control(%) ([5]; Myr 20 µM only (Dox 0)): 13.04%
- Relatively Cell inhibition of vehicle control(%) ([5]; Myr 20 µM only (Tax 0)): 5.06%
- Relatively Cell inhibition of vehicle control(%) ([5]; Myr 20 µM only (Top 0)): 1.70%
- Relatively Cell inhibition of vehicle control(%) ([5]; Myr 100 µM only (Cis 0), listed as Myr): 44.00%
- Relatively Cell inhibition of vehicle control(%) ([5]; Myr 100 µM only (Dox 0)): 35.29%
- Relatively Cell inhibition of vehicle control(%) ([5]; Myr 100 µM only (Tax 0)): 32.89%
- Relatively Cell inhibition of vehicle control(%) ([5]; Myr 100 µM only (Top 0)): 29.93%
